The numbers were not newly measured in patent US20030235623A1, “Aqueous disinfecting compositions with rapid bactericidal effect” (priority 2002, published 2003), which cites them from elsewhere.

The subject of this data set is some bacteria.

Turning to `OO` [Hydrogen peroxide], the “concentration known to inhibit the growth of some bacteria” value is 25 mg/L.
